Test results published in the NIST ThermoML archive (doi:10.1021/je050498q).
Numbers after ± are expanded uncertainties.

Assay: mn = molality of the nth substance listed, in mol/kg
Details: 101 kPa, Liquid

O=C([O-])[C@H](O)[C@@H](O)C(=O)[O-].[Na+].[Na+] [disodium L-tartrate] + O
Details | mass density, 298.15 K [kg/m3] | mass density, 308.15 K [kg/m3] | mass density, 318.15 K [kg/m3] | speed of sound, 298.15 K [m/s] | speed of sound, 308.15 K [m/s] | speed of sound, 318.15 K [m/s]
m1 = 0.0325 | 1001.45 ± 0.58 | 998.34 ± 0.59 | 994.47 ± 0.58 | 1502 ± 3.3 | 1524.8 ± 3.3 | 1541.3 ± 3.3
m1 = 0.0351 | 1001.8 ± 0.58 | 998.7 ± 0.58 | 994.82 ± 0.58 | 1502.3 ± 3.3 | 1525.2 ± 3.3 | 1541.7 ± 3.3
m1 = 0.0405 | 1002.51 ± 0.58 | 999.4 ± 0.58 | 995.52 ± 0.58 | 1503.1 ± 3.3 | 1526 ± 3.3 | 1542.3 ± 3.3
m1 = 0.0552 | 1004.48 ± 0.58 | 1001.34 ± 0.58 | 997.43 ± 0.58 | 1505.4 ± 3.3 | 1528 ± 3.3 | 1544.3 ± 3.3
m1 = 0.0576 | 1004.79 ± 0.58 | 1001.64 ± 0.58 | 997.72 ± 0.58 | 1505.7 ± 3.3 | 1528.4 ± 3.3 | 1544.6 ± 3.3
m1 = 0.0673 | 1006.08 ± 0.59 | 1002.91 ± 0.58 | 998.99 ± 0.58 | 1507.2 ± 3.3 | 1529.7 ± 3.3 | 1545.9 ± 3.3
m1 = 0.0747 | 1007.06 ± 0.59 | 1003.87 ± 0.58 | 999.92 ± 0.57 | 1508.2 ± 3.3 | 1530.7 ± 3.3 | 1547 ± 3.3
m1 = 0.0814 | 1007.94 ± 0.59 | 1004.73 ± 0.58 | 1000.77 ± 0.57 | 1509.9 ± 3.3 | 1531.6 ± 3.3 | 1547.7 ± 3.3
m1 = 0.1365 | 1015.14 ± 0.6 | 1011.79 ± 0.59 | 1007.83 ± 0.58 | 1517.3 ± 3.3 | 1539.2 ± 3.3 | 1554.9 ± 3.3
m1 = 0.2798 | 1033.29 ± 0.63 | 1029.68 ± 0.62 | 1025.48 ± 0.61 | 1537.5 ± 3.3 | 1558.2 ± 3.3 | 1572.9 ± 3.4
m1 = 0.4159 | 1049.92 ± 0.66 | 1046.11 ± 0.65 | 1041.78 ± 0.64 | 1556.3 ± 3.3 | 1575.8 ± 3.4 | 1589.4 ± 3.4
m1 = 0.5661 | 1067.63 ± 0.7 | 1063.54 ± 0.69 | 1059.16 ± 0.68 | 1576.4 ± 3.4 | 1594.6 ± 3.4 | 1607.3 ± 3.4
m1 = 0.7158 | 1084.68 ± 0.73 | 1080.39 ± 0.72 | 1075.77 ± 0.71 | 1598.6 ± 3.4 | 1615.3 ± 3.4 | 1624.1 ± 3.4
m1 = 0.888 | 1103.52 ± 0.78 | 1098.96 ± 0.77 | 1094.15 ± 0.75 | 1618.5 ± 3.4 | 1633.8 ± 3.4 | 1644 ± 3.5
m1 = 1.055 | 1121.13 ± 0.82 | 1116.46 ± 0.81 | 1111.35 ± 0.79 | 1639.6 ± 3.4 | 1653.6 ± 3.5 | 1662.2 ± 3.5
m1 = 1.211 | 1137 ± 0.86 | 1132.16 ± 0.85 | 1126.7 ± 0.83 | 1659 ± 3.5 | 1671.7 ± 3.5 | 1679.2 ± 3.5
m1 = 1.412 | 1156.69 ± 0.91 | 1151.68 ± 0.89 | 1146.41 ± 0.88 | 1683.6 ± 3.5 | 1694.5 ± 3.5 | 1701.2 ± 3.5
m1 = 1.593 | 1173.71 ± 0.95 | 1168.58 ± 0.94 | 1163.14 ± 0.92 | 1705.1 ± 3.5 | 1714.6 ± 3.5 | 1719.8 ± 3.5
m1 = 1.749 | 1187.9 ± 0.99 | 1182.99 ± 0.98 | 1176.91 ± 0.96 | 1723.3 ± 3.5 | 1732 ± 3.6 | 1734.8 ± 3.6
m1 = 2.203 | 1226.56 ± 1.1 | 1221.08 ± 1.1 | 1215.23 ± 1.1 | 1774 ± 3.6 | 1778.7 ± 3.6 | 1779.7 ± 3.6
